Experimental data as given in ChEMBL document CHEMBL2406986, “Correlation of hydrogen-bonding propensity and anticancer profile of tetrazole-tethered combretastatin analogues” (Bioorg Med Chem Lett, 2013).

Experiments:
[1] = Cytotoxicity against human H1299 cells assessed as growth inhibition after 48 hrs by MTT assay; assay type: functional, cell-based; details: NCI-H1299, 48 h
A549 = assay: Cytotoxicity against human A549 cells assessed as growth inhibition after 48 hrs by MTT assay; assay type: functional, cell-based; details: A549, 48 h
MCF7 = assay: Cytotoxicity against human MCF7 cells assessed as growth inhibition after 48 hrs by MTT assay; assay type: functional, cell-based; details: MCF7, 48 h
[2] = Inhibition of bovine brain tubulin assembly preincubated for 15 mins followed by GTP addition measured for 20 mins by spectrophotometric analysis; parameters: species or system Bos taurus
HeLa = assay: Cytotoxicity against human HeLa cells assessed as growth inhibition after 48 hrs by MTT assay; assay type: functional, cell-based
Bos taurus = species on record: Bos taurus; assay: Displacement of [3H]colchicine from bovine brain tubulin at 5 uM after 10 mins relative to control

IC50 [2] [µM]	inhibition (Bos taurus) [%]	Compound	IC50 [1] [µM]	IC50 (A549) [µM]	IC50 (MCF7) [µM]	IC50 (HeLa) [µM]
2.7	52	COc1ccc(-c2nnnn2-c2cc(OC)c(OC)c(OC)c2)c(O)c1	7.9	6.4	8.2	2.4
> 20	–	COc1ccc(-c2nnnn2-c2cc(OC)c(OC)c(OC)c2O)c(O)c1	49	50	46	45
2.5	62	COc1ccc(-c2nnnn2-c2cc(OC)c(OC)c(OC)c2)c(O)c1O	8.8	6.7	6.6	0.95

The remaining lines, values behind:

Compound	IC50 [2] [µM]	inhibition (Bos taurus) [%]	IC50 [1] [µM]	IC50 (A549) [µM]	IC50 (MCF7) [µM]	IC50 (HeLa) [µM]
COc1ccc(/C=C\c2cc(OC)c(OC)c(OC)c2)cc1O [COMBRETASTATIN A4]	–	–	0.0062	0.28	0.098	–
COc1ccc(-c2nnnn2-c2cc(OC)c(OC)c(OC)c2)c(O)c1N	2.2	69	4	0.52	2.9	0.9
COc1ccc(-c2nnnn2-c2cc(OC)c(OC)c(OC)c2O)cc1	> 20	–	40	> 100	72	92
